From US6599541B1, “Composition for treatment of drug resistant bacterial infections and a method of treating drug resistant bacterial infections” (priority 1999, dated 2003)

Columns and labels:
Type in all cases: cell-based
Pseudomonas aerugenosa = experiment: Agar Dilution Method of Sensitivity testing, NE + antibiotic; conditions: for Growth Patterns after addition of NE: no. of cultures +++ (growth) / Growth Patterns after addition of NE: no. of cultures −−− (inhibition of growth): 16 resistant Pseudomonas strains, 48 hours
Description: (§1) Two kinds of investigations were carried-out using these bacterial isolates—using an Agar Dilution Method of Sensitivity testing.
(§2) i) The culture medium (Mueller Hinton Agar) was melted and distributed into a number of test tubes.
(§3) ii) The stock solution of NE was dispensed into these test tubes in four different concentrations viz.
(§4) iii) In the same medium, one of the antibiotics under investigation was also added so as to provide a variable concentration (at break-even point concentration) as described below:
(§5) iv) The culture medium containing NE extract+the antibiotic were poured into petri dishes and allowed to solidify.
(§6) v) The resistant bacterial strains were inoculated onto these plates, incubated for 48 hours and the growth patterns were studied on each plate.

Klebsiella pneumoniae [1] = experiment: Broth Macro Dilution Test, MIC and MBC; conditions: antibiotic alone
Text: (§7) This was done by estimation of the Minimum Inhibitory Concentration (MIC) and Minimum Bactericidal Concentration (MBC) on the selected isolates by a Broth Macro Dilution Test.
(§8) While conducting these tests, the guidelines given by the National committee of Clinical Laboratory Standards 1995 protocols were employed. Cation Supplemented Mueller Hinton Broth was used as medium for all organisms excepting for β haemolytic streptococci for which, Todd Hewit's Broth was used as medium.
(§9) The following concentrations of antibiotics were tested to determine MIC and MBC.
(§10) Co-trimoxazole (Sulpharnethoxazole/Trimethoprim/μg/μg per ml)
(§11) A minimum inhibitory concentration is the lowest level of antibiotic needed to cause an inhibition to bacterial growth in culture medium whereas, the minimum bactericidal concentration is the lowest concentration of antibiotic to achieve a 100% killing of bacteria. Thus, these two values are the practical indices of intensity of bacterial resistance to a given antibiotic. On the other hand, a break-even point of any antibiotic indicates the attainable blood levels after an administration of full dose, in human/animal body. Thus, this point indicates the practical dosage of administering any given antibiotic effectively and beyond this point, even if an antibiotic is found to act effectively in experimental situation—such dose cannot be administered in a clinical situation.

Salmonella senftenberg [2] = experiment: Broth Macro Dilution Test, MIC and MBC; conditions: Example 13: strain from burn wound swab culture; antibiotic alone
Text: as §7, §8, §9, §10, §11

Klebsiella pneumoniae [3] = experiment: Broth tube test of NE with antibiotic at break point, percentage of killing
Description: (§12) Since all the study isolates are resistant to the concerned antibiotics, each antibiotic is taken at its breakpoint concentration, (the highest serum concentration of that particular antibiotic reached after the maximum therapeutic dose in-vivo). The break points for various antibiotics are as follows:
(§13) Preparation of Neem Extract: Stock solution of neem extract (1 mg/ml) was prepared, filtered and autoclaved. It was used in 4 concentrations—1000 μg/ml; 500 μg/ml; 250 μg/ml; 125 μg/ml.
(§14) A set of four tubes with variable concentrations of the extract is prepared and to each of these tubes, the break point concentration of antibiotics is added. Now, these sets are inoculated with the study isolate in the same manner as per the broth dilution procedure. A set of six controls is inoculated with each isolate—in parallel with the main experiment.
(§15) 2. Only antibiotic solution
(§16) 3. Medium and antibiotic solution with inoculum
(§17) 5. Only Neem extract at 250 μg/ml
(§18) 6. Medium with Neem Extract and inoculum
(§19) Reading the test All the tests and control tubes are observed for visible turbidity of growth first. Since all the study isolates were earlier confirmed to be resistant to the antibiotics, the bacterial growth is expected at the breakpoint concentration of the antibiotic. Any reduction in the turbidity as compared to the control tube no. 3 is noted as a possible additive or synergistic effect of the neem extract with the antibiotic. In absence of such effect, the tubes may show growth matching with the control no. 4.
(§20) In case of a positive result, further sub-culturing was taken up, on solid media for colony counts with a calibrated loop. The colony counts could be noted by a semi quantitative method as 101 to 10^5 CFU/ml (Colony forming units). This is finally expressed as the percentage of killing as compared to the colony count obtained with control no. 4. Usually control tubes no. 3, 4 and 6 had similar colony counts.

Salmonella senftenberg [4] = experiment: as above; conditions: Example 13 strain; antibiotic in combination with NE, uniform in all four concentrations
Description: as §12, §13, §14, §15, §16, §17, §18, §19, §20

Staphylococcus aureus = experiment: Agar Dilution Method of Sensitivity testing, NE alone and NE + antibiotic; conditions: resistant S. aureus cultures, 48 hours
Description: as §1
i) To ascertain whether, NE can work as an antibacterial substance on its own. For this purpose, a stock-solution of NE was prepared and was sterilized as described in the preliminary experiments.
ii) This stock-solution was dispensed into the culture medium (Mueller Hinton Agar) so as to provide while; the medium was in liquid form. Four different concentrations of NE, viz.
iii) This medium was poured into petri dishes and allowed to solidify. Resistant cultures were inoculated on to these plates and after incubation for 48 hours, the growth patterns were assessed.
iv) The experiments were run in triplicate, for each concentration—as per standard practices of microbiological testing procedures.
as §2, §3, §4, §5, §6
These cultures were obtained various clinical samples, such as sputum, non-healing infected wounds, throat swabs etc.

[5] = antibiotic at break-even point + NE 125 μg/mL
[6] = antibiotic at break-even point + NE 250 μg/mL
[7] = antibiotic at break-even point + NE 500 μg/mL
[8] = antibiotic at break-even point + NE 1000 μg/mL
[9] = Example 3: strain from non-healing burn wound
[10] = Example 4: strain from wound swab culture

For CCN1CCN(C(=O)N[C@@H](C(=O)N[C@@H]2C(=O)N3[C@@H]2SC(C)(C)[C@@H]3C(=O)O)c2ccccc2)C(=O)C1=O [Piperacillin], the “Growth Patterns after addition of NE: no. of cultures +++ (growth)” value (“Growth Patterns … no. of cultures +++ (growth)” below) (Pseudomonas aerugenosa; [5]) was 3, the “Growth Patterns after addition of NE: no. of cultures −−− (inhibition of growth)” value (Pseudomonas aerugenosa; [5]) was 13 and the “Growth Patterns … no. of cultures +++ (growth)” value (Pseudomonas aerugenosa; [6]) was 3. The “Growth Patterns after addition of NE: no. of cultures −−− (inhibition of growth)” value (Pseudomonas aerugenosa; [6]) was 13, the “Growth Patterns … no. of cultures +++ (growth)” value (Pseudomonas aerugenosa; [7]) was 3 and the “Growth Patterns after addition of NE: no. of cultures −−− (inhibition of growth)” value (Pseudomonas aerugenosa; [7]) was 13. For the same molecule, the “Growth Patterns … no. of cultures +++ (growth)” value (Pseudomonas aerugenosa; [8]) was 3, the “Growth Patterns after addition of NE: no. of cultures −−− (inhibition of growth)” value (Pseudomonas aerugenosa; [8]) was 13 and the “isolates sensitized to the antibiotic by NE” value (Pseudomonas aerugenosa; of 16 resistant strains, NE + antibiotic) was 13.
Co-trimoxazole was tested, and the MBC (Klebsiella pneumoniae [1]; [9]) was > 16/304, the MIC (Klebsiella pneumoniae [1]; [9]) was 8/152 and the MBC (Klebsiella pneumoniae [1]; [10]) was 16/304. The MIC (Klebsiella pneumoniae [1]; [10]) was 8/152, the MBC (Salmonella senftenberg [2]) was 16/304 and the MIC (Salmonella senftenberg [2]) was 8/152. The killing (Klebsiella pneumoniae [3]; Example 3 strain, antibiotic at break point in combination with NE, uniform at 1000, 500, 250, 125 μg/ml) was 50%, the killing (Klebsiella pneumoniae [3]; Example 4 strain, antibiotic at break-even concentration with NE, uniform at all four NE concentrations) was 90% and the killing (Salmonella senftenberg [4]) was 60%.
With Gentamicin the “Growth Patterns … no. of cultures +++ (growth)” value (Staphylococcus aureus; [5]) was 89, the “Growth Patterns after addition of NE: no. of cultures −−− (inhibition of growth)” value (Staphylococcus aureus; [5]) was 13 and the “Growth Patterns … no. of cultures +++ (growth)” value (Staphylococcus aureus; [6]) was 88. For the same molecule, the “Growth Patterns after addition of NE: no. of cultures −−− (inhibition of growth)” value (Staphylococcus aureus; [6]) was 14, the “Growth Patterns … no. of cultures +++ (growth)” value (Staphylococcus aureus; [7]) was 88 and the “Growth Patterns after addition of NE: no. of cultures −−− (inhibition of growth)” value (Staphylococcus aureus; [7]) was 14. The “Growth Patterns … no. of cultures +++ (growth)” value (Staphylococcus aureus; [8]) was 88 and the “Growth Patterns after addition of NE: no. of cultures −−− (inhibition of growth)” value (Staphylococcus aureus; [8]) was 14.
